{"source": "patent US8871945B2", "about": "“Process for preparation of rufinamide” (priority 2010, dated 2014)", "origin": "cited, not measured here", "key": {"sodium channels [1]": {"system": "sodium channels", "details": "Rufinamide ≧1 μM; after a prolonged prepulse; cultured cortical neurons"}, "sodium channels [2]": {"system": "sodium channels", "details": "cultured cortical neurons; read-out: EC50 for limiting sustained repetitive firing of sodium-dependent action potentials"}}}
{"smiles": "NC(=O)c1cn(Cc2c(F)cccc2F)nn1", "note": "[Rufinamide, 1-(2,6-difluorobenzyl)-1H-1,2,3-triazole-4-carboxamide]", "values": [{"measurement": "sodium channel recovery from inactivation", "setting": "sodium channels [1]", "result": "significantly slowed"}, {"measurement": "EC50", "setting": "sodium channels [2]", "result": 3.8, "unit": "µM"}]}
